These results are taken from patent US11304946B2, “2-hetarylpyrimidine-4-carboxamides as aryl hydrocarbon receptor antagonists” (Bayer Aktiengesellschaft, priority 2017, dated 2022).

One assay deals with T1, Human AhR (Homo sapiens, UniProt P35869).
T1 construct: host or cells: U87 glioblastoma cells, stably transfected with DRE-driven firefly luciferase and constitutive renilla reporter constructs
T1 sequence (P35869 11-848): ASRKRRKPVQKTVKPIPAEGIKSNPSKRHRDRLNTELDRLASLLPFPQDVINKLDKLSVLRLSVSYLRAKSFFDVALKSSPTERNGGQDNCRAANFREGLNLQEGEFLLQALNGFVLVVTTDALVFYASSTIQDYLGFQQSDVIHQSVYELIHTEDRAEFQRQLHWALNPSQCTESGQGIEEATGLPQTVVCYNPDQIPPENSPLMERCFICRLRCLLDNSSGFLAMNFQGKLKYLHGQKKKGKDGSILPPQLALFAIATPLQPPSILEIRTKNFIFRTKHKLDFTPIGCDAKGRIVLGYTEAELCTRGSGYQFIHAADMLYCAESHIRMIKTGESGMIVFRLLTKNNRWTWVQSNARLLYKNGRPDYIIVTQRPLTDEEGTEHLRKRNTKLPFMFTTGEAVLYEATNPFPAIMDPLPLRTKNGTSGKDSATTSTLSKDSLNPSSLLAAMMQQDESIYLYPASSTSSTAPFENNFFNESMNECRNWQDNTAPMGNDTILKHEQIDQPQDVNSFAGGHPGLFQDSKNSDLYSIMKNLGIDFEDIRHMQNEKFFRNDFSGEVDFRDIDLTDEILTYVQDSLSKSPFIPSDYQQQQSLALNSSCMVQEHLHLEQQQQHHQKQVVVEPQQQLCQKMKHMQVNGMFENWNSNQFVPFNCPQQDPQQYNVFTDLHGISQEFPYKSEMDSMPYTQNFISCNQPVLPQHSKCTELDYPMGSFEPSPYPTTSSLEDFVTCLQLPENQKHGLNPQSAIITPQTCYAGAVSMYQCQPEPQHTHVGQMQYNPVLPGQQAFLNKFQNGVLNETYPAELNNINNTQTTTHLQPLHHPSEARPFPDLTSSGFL
In words: Transactivation assay in human cell line (in vitro assay 1: antagonism). The class given is cell-based. The following applies: U87 glioblastoma cells, AHR inducible (DRE) firefly luciferase reporter, 150 μM kynurenic acid, 20 hours. As for the experimental part: Transactivation Assay in Human Cell Line (In Vitro Assay 1)
Transactivation assay was carried out in U87 glioblastoma cells (ATCC) endogenously expressing AHR. In addition the cells were stably transfected with an AHR inducible firefly luciferase reporter gene construct that carried AHR-binding sites (DRE) in its promoter and a renilla reporter gene construct with constitutively active promoter. Kynurenic acid is an endogenous AHR activating ligand and was used to prestimulate test cells prior to testing the antagonistic properties of compounds.
In Vitro Assay 1: Antagonism in Human Cell Line
Firefly luciferase and Renilla activity was determined by the DualGlo Luciferase Assay System (Promega, #2920). Renilla activity was used to assess toxic effects of compounds.
A general note: In a reporter assay the amount or activity of a reporter protein is the signal.

The target of the next assay is T2, Mouse AhR (Mus musculus, UniProt P30561).
T2 sequence (P30561 1-848): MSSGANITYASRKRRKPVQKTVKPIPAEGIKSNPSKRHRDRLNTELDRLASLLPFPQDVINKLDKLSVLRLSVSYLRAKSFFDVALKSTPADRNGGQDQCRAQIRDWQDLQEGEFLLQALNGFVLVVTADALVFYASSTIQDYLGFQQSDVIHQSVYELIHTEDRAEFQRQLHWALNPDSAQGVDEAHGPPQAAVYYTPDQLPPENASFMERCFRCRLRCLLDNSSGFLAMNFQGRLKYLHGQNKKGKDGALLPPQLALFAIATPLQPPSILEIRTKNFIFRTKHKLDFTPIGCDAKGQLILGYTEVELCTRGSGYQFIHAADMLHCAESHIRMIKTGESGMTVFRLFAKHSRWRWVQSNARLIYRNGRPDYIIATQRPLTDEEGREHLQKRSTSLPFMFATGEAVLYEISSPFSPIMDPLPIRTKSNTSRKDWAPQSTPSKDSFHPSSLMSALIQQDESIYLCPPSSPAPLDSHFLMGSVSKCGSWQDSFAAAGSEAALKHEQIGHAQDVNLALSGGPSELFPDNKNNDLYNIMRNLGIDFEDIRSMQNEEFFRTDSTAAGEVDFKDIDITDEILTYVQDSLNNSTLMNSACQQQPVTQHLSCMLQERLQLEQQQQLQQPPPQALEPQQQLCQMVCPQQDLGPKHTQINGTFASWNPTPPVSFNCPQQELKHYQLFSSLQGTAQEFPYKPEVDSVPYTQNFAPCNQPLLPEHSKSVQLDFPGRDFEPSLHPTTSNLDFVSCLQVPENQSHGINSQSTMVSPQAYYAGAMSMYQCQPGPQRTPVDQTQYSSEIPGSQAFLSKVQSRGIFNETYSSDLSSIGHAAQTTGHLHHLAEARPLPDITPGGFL
In words: Transactivation assay in mouse cell line (in vitro assay 2: antagonism). The assay is classed as cell-based. To be noted: Hepa 1c1c7 cells, AHR inducible (DRE) firefly luciferase reporter, 200 μM kynurenic acid, 20 hours. The protocol: Transactivation Assay in Mouse Cell Line (In Vitro Assay 2)
Transactivation assay was carried out in Hepa 1c1c7 cells (ATCC #CRL-2026) endogenously expressing AHR. In addition the cells were stably transfected with an AHR inducible firefly luciferase reporter gene construct that carried AHR-binding sites (DRE) in its promoter. Kynurenic acid is an endogenous AHR activating ligand and was used to prestimulate test cells prior to testing the antagonistic properties of compounds.
In Vitro Assay 2: Antagonism in Mouse Cell Line
Firefly luciferase activity was determined by the SteadyGlo Luciferase Assay System (Promega, #E2550).

Take `Cc1ccc(-c2nc(C(=O)N[C@@H](C)CO)cc(-c3ccc(OC(F)(F)F)cc3)n2)cn1` [Example 39, N-[(2S)-1-hydroxypropan-2-yl]-2-(6-methylpyridin-3-yl)-6-[4-(trifluoromethoxy)phenyl]pyrimidine-4-carboxamide]: the IC50 (usually the concentration at which inhibition is half-maximal) on Human AhR came out at 68.4 nM; at Mouse AhR, 431 nM.
With `Cn1cc(-c2nc(C(=O)N[C@@H]3CS(=O)(=O)C[C@H]3O)cc(-c3ccc(OC(F)(F)F)cc3)n2)cn1` (relative stereo) [Example 100, N-[(trans)-4-hydroxy-1,1-dioxo-1lambda^6-thiolan-3-yl]-2-(1-methyl-1H-pyrazol-4-yl)-6-[4-(trifluoromethoxy)phenyl]pyrimidine-4-carboxamide], the IC50 at Human AhR was determined as 10.1 nM; against Mouse AhR, 8.18 nM.
As for `Cc1noc(C)c1-c1nc(C(=O)N[C@@H](C)CO)cc(-c2ccc(OC(F)(F)F)cc2)n1` [Example 35, 2-(3,5-dimethyl-1,2-oxazol-4-yl)-N-[(2S)-1-hydroxypropan-2-yl]-6-[4-(trifluoromethoxy)phenyl]pyrimidine-4-carboxamide], the IC50 against Human AhR worked out at 1030 nM; against Mouse AhR it was 5310 nM.
As to `Cn1cc(-c2nc(C(=O)N[C@@H](C#N)CO)cc(-c3ccc(OC(F)(F)F)cc3)n2)cn1` [Example 101, N-[(1S)-1-cyano-2-hydroxyethyl]-2-(1-methyl-1H-pyrazol-4-yl)-6-[4-(trifluoromethoxy)phenyl]pyrimidine-4-carboxamide], the IC50 came to 22.3 nM against Human AhR and 18.9 nM on Mouse AhR.
The like results for `CC(C)(O)CNC(=O)c1cc(-c2ccc(OC(F)(F)F)cc2)nc(-c2cnoc2)n1` [Example 22, N-(2-hydroxy-2-methylpropyl)-2-(1,2-oxazol-4-yl)-6-[4-(trifluoromethoxy)phenyl]pyrimidine-4-carboxamide] were, in that order, 1100 nM and 5530 nM.
In the case of `C[C@@H](CO)NC(=O)c1cc(-c2ccc(OC(F)(F)F)cc2)nc(-c2ccnn2C)n1` [Example 34, N-[(2S)-1-hydroxypropan-2-yl]-2-(1-methyl-1H-pyrazol-5-yl)-6-[4-(trifluoromethoxy)phenyl]pyrimidine-4-carboxamide], the IC50 against Human AhR was 29.6 nM; at Mouse AhR, 24 nM.
`Cc1ccc(-c2nc(C(=O)N[C@@H](C)CO)cc(-c3ccc(Cl)cc3)n2)cn1` [Example 79, 6-(4-chlorophenyl)-N-[(2S)-1-hydroxypropan-2-yl]-2-(6-methylpyridin-3-yl)pyrimidine-4-carboxamide]: the IC50 at Human AhR stood at 108 nM; against Mouse AhR, 671 nM.
`Cn1cc(-c2nc(C(=O)N[C@H](CO)C3CC3)cc(-c3ccc(OC(F)(F)F)cc3)n2)cn1` [Example 99, N-[(1S)-1-cyclopropyl-2-hydroxyethyl]-2-(1-methyl-1H-pyrazol-4-yl)-6-[4-(trifluoromethoxy)phenyl]pyrimidine-4-carboxamide]: the half-maximal inhibitory concentration (IC50) is 17.6 nM against Human AhR and 21.5 nM against Mouse AhR.
Take `Cc1ccc(-c2nc(C(=O)NCC(C)(C)O)cc(-c3ccc(Cl)cc3)n2)cn1` [Example 60, 6-(4-chlorophenyl)-N-(2-hydroxy-2-methylpropyl)-2-(6-methylpyridin-3-yl)pyrimidine-4-carboxamide]: the IC50 against Human AhR is 64.7 nM; on Mouse AhR it was 1420 nM.
As for `Cn1cc(-c2nc(C(=O)N[C@@H]3COC[C@@H]3O)cc(-c3ccc(OC(F)(F)F)cc3)n2)cn1` (relative stereo) [Example 105, N-[(cis)-4-hydroxyoxolan-3-yl]-2-(1-methyl-1H-pyrazol-4-yl)-6-[4-(trifluoromethoxy)phenyl]pyrimidine-4-carboxamide], the IC50 came to 8.48 nM at Human AhR and 6.01 nM against Mouse AhR.
Regarding `C[C@H](CO)NC(=O)c1cc(-c2ccc(OC(F)(F)F)cc2)nc(-c2cccnc2)n1` [Example 2, N-[(2R)-1-hydroxypropan-2-yl]-2-(pyridin-3-yl)-6-[4-(trifluoromethoxy)phenyl]pyrimidine-4-carboxamide], the IC50 turned out to be 2.88 nM against Human AhR and 20.3 nM against Mouse AhR.
As to `CC(C)(O)CNC(=O)c1cc(-c2ccc(Cl)cc2)nc(-c2cncnc2)n1` [Example 55, 6-(4-chlorophenyl)-N-(2-hydroxy-2-methylpropyl)[2,5′-bipyrimidine]-4-carboxamide], the values for the half-inhibitory concentration (IC50) against Human AhR and at Mouse AhR were 10.3 nM and 17.3 nM, respectively.
As to `Cc1[nH]ncc1-c1nc(C(=O)NCC(C)(C)O)cc(-c2ccc(OC(F)(F)F)cc2)n1` [Example 24, N-(2-hydroxy-2-methylpropyl)-2-(3-methyl-1H-pyrazol-4-yl)-6-[4-(trifluoromethoxy)phenyl]pyrimidine-4-carboxamide], the IC50 on Human AhR was determined as 208 nM; against Mouse AhR it was 359 nM.
Take `Cn1cc(-c2nc(C(=O)NC3CCCC(F)(F)C3O)cc(-c3ccc(OC(F)(F)F)cc3)n2)cn1` (stereo not drawn) [Example 106, N-(3,3-difluoro-2-hydroxycyclohexyl)-2-(1-methyl-1H-pyrazol-4-yl)-6-[4-(trifluoromethoxy)phenyl]pyrimidine-4-carboxamide]: the IC50 on Human AhR was determined as 7.32 nM; against Mouse AhR it was 20 nM.
In the case of `C[C@@H](CO)NC(=O)c1cc(-c2ccc(OC(F)(F)F)cc2)nc(-c2cc[nH]n2)n1` [Example 37, N-[(2S)-1-hydroxypropan-2-yl]-2-(1H-pyrazol-3-yl)-6-[4-(trifluoromethoxy)phenyl]pyrimidine-4-carboxamide], the IC50 on Human AhR was found to be 71.7 nM; at Mouse AhR it was 93 nM.
On to `Cn1cc(-c2nc(C(=O)N[C@H]3COC[C@H]3O)cc(-c3ccc(OC(F)(F)F)cc3)n2)cn1` [Example 103, N-[(3S,4S)-4-hydroxytetrahydrofuran-3-yl]-2-(1-methyl-1H-pyrazol-4-yl)-6-[4-(trifluoromethoxy)phenyl]pyrimidine-4-carboxamide], for which the IC50 at Human AhR was determined as 6.74 nM; at Mouse AhR it was 5.82 nM.
Consider `C[C@@H](CO)NC(=O)c1cc(-c2ccc(Cl)cc2)nc(-c2cnn(C3CC3)c2)n1` [Example 85, 6-(4-chlorophenyl)-2-(1-cyclopropyl-1H-pyrazol-4-yl)-N-[(2S)-1-hydroxypropan-2-yl]pyrimidine-4-carboxamide], for which the values for the IC50 on Human AhR and on Mouse AhR were 1200 nM and 7400 nM, respectively.
With `Cn1cc(-c2nc(C(=O)N[C@@H]3CCC[C@H]3O)cc(-c3ccc(OC(F)(F)F)cc3)n2)cn1` (stereo in doubt) [Example 96, N-[(trans)-2-hydroxycyclopentyl]-2-(1-methyl-1H-pyrazol-4-yl)-6-[4-(trifluoromethoxy)phenyl]pyrimidine-4-carboxamide], the results for the IC50 on Human AhR and at Mouse AhR were 53.2 nM and 56.1 nM, respectively.
